Source: patent US5326786A, “5,6,7,9-tetrahydro-1,2,3-trimethoxy-9-oxobenzo[alpha]heptalene derivative and pharmaceutical use” (Ohgen Research Laboratories Ltd., priority 1992, dated 1994)
≈ marks a conversion by molar mass, not a printed value. Where “and” joins values, the source holds several entries; their conditions need not be identical. Identical values can stand only once. Counter-ions that a name gives are not always drawn.

How the values were obtained:
[1] = system: adriamycin-resistant mouse leukemic cells p388/ADR; assay: In vitro cancer cell proliferation inhibiting test (1); type: cell-based; conditions: 48 h, read-out: IC50 (50% proliferation inhibitory concentration), RPMI 1640 with 10% fetal bovine serum, cultured for 2 days
Method: (§1) (1) 10^6 each of mouse leukemic cells p388/S and adriamycin-resistant mouse leukemic cells p388/ADR are suspended in RPMI 1640 media each containing 10% fetal bovine serum, respectively, and cultured for 2 days in the presence of a test compound (this was used after it was dissolved in dimethylsulfoxide to 1 mg/ml and the solution was diluted with a phosphate buffer).

[2] = system: p388/S mouse leukemic cells; assay: as above; type: cell-based; conditions: 48 h, read-out: IC50 (50% proliferation inhibitory concentration), RPMI 1640 with 10% fetal bovine serum, cultured for 2 days
Method: as §1

[3] = system: cancer cells; conditions: known compounds, background; cited from earlier work
[4] = known compounds, background; cited from earlier work
[5] = system: adriamycin-resistant mouse leukemic cells p388/ADR; assay: In vitro cancer cell proliferation inhibiting test (2), Trypan Blue living cell count; type: cell-based
Method: (§2) (2) Mouse leukemic cells p388/S and adriamycin-resistant mouse leukemic cells P388/ADR subculturally transplanted in the abdominal cavity of mice were taken out together with the asites therefrom, respectively, and after washing, suspended in RPMI 1640 media (each containing 10% fetal bovine serum and 10 μM 2-mercaptoethanol) to 2×10^5 cells/ml, respectively.
(§3) Test solutions (solutions of the compound of the later-described Example 3 in phosphate-buffered physiological saline) were added to portions of each of these cell suspensions, respectively; and the mixtures were separately put into a 24-well culture plate and subjected to culture for 2 days in a 5% carbon dioxide culturing vessel.

[6] = system: p388/S mouse leukemic cells; assay: as above; type: cell-based
Method: as §2, §3

[7] = Acute toxicity test; type: in vivo, mouse; conditions: mouse, in vivo, ip; intraperitoneal; CDF male mice; 10 days observation; Litchfield Wilcoxon method; printed interval 233 to 310 mg/kg
[8] = system: CDF male mice; assay: Acute toxicity test; type: in vivo, mouse; conditions: intraperitoneal

With COc1cc2c(c(OC)c1OC)-c1ccc(OC)c(=O)cc1C(NCC1COC(C)(C)O1)CC2 (racemic) [DL-N-(O,O-isopropylideneglyceryl)deacetylcolchicine] the IC50 [1] was 0.13 µg/mL (≈ 0.276 µM) and the IC50 [2] was 0.013 µg/mL (≈ 0.0276 µM).
In the case of COc1cc2c(c(OC)c1OC)-c1ccc(OC)c(=O)cc1[C@@H](NC(C)=O)CC2 [Colchicine, colchicine], the carcinostatic action [3] is given as “no sufficient carcinostatic action” and the toxicity [4] is given as “strong toxicity”.
Work on COc1cc2c(c(OC)c1OC)-c1ccc(OC)c(=O)cc1C(NC[C@H]1COC(C)(C)O1)CC2 (stereo partly drawn) [D-N-(O,O-isopropylideneglyceryl)deacetylcolchicine] yielded an IC50 [1] of 0.038 µg/mL (≈ 0.0806 µM) and an IC50 [2] of 0.014 µg/mL (≈ 0.0297 µM).
In the case of CNc1ccc2c(cc1=O)C(NCC1COC(C)(C)O1)CCc1cc(OC)c(OC)c(OC)c1-2 (centres unmarked) [N'-(O,O-isopropylideneglyceryl)-N-methyldeacetylcolchiceinamide tartrate salt], the “IC50 (50% proliferation inhibitory concentration), P388/ADR” value ([5]; 2 days, experiment carried out three times, one value per experiment, tartrate salt) is reported as 0.0164 µg/mL and 0.0192 µg/mL, the IC50 ([5]; Mus musculus, 48 h, read-out: IC50 (50% proliferation inhibitory concentration), P388/ADR, 2 days, experiment carried out three times, one value per experiment) is reported as 0.018 µg/mL and the IC50 ([6]; Mus musculus, P388/S, 48 h, read-out: IC50 (50% proliferation inhibitory concentration), p388/S, 2 days, experiment carried out three times, one value per experiment) is reported as 0.0135 µg/mL. For the same compound, the “IC50 (50% proliferation inhibitory concentration), p388/S” value ([6]; p388/S, 2 days, experiment carried out three times, one value per experiment, tartrate salt) was 0.0128 µg/mL and 0.0149 µg/mL.
In the case of CNc1ccc2c(cc1=O)[C@@H](NC(C)=O)CCc1cc(OC)c(OC)c(OC)c1-2 [N-methylcolchiceinamide], the carcinostatic action [3] is listed as “no sufficient carcinostatic action” and the toxicity [4] is listed as “strong toxicity”.
COc1cc2c(c(OC)c1OC)-c1ccc(OC)c(=O)cc1C(NC[C@@H]1COC(C)(C)O1)CC2 (stereo partly drawn) [Example 3, L-N-(O,O-isopropylideneglycerol)deacetylcolchicine] gave an IC50 [1] of 0.14 µg/mL (≈ 0.297 µM), an IC50 [2] of 0.018 µg/mL (≈ 0.0382 µM) and an LD50 at 240 h [7] of 269 mg/kg. The body weight change ([8]; 10 days observation) was “tended to decrease up to 2 to 4 days after administration, but thereafter increased gradually” and the acute toxicity symptoms ([8]; high administration groups, on and after one day after administration) was “the lie of hair got worse on and after one day after administration, and cases where diarrhea or loss of hair arose were also observed”.
